The text below walks through data of paper PMC8589851 (Scientific Reports, 2021).

Series [1] deals with SARS-CoV-2 NanoLuc reporter virus. Kind of series: microbe, parasite or virus in culture. It is filed as cell-based.
The conditions of series [2]: CF patients, cited from earlier work.
In another series the test system is native SARS-CoV-2. The settings on record: Vero cells; cited from earlier work.
The conditions of series [3]: 0.25 mg daily for one week, cystic fibrosis patients; cited from earlier work.
Series [4] has as its system SARS-CoV-2 Spike pseudotyped VSV(S). Kind of series: microbe, parasite or virus in culture. It is filed as cell-based. The settings on record: Severe acute respiratory syndrome coronavirus 2, A549, read-out: Hill plot-based EC-50, inhibition of virus penetration.
The conditions of series [5]: cited from earlier work.
For series [6] the following is noted: 0.50–0.60 mg injected, 12 normal subjects; cited from earlier work.
[7] abbreviates: 0.25 mg ouabain daily for 9 days.
The mark [8] stands for this setting: 0.25 mg ouabain, normal human volunteers.

Structures are written as SMILES. “And” between values parts separate entries of the source, which are not always exact repeats. Equal values may be shown once. Read-outs that look alike come from different tables or passages of the source.

`C[C@H]1O[C@@H](O[C@H]2[C@@H](O)C[C@H](O[C@H]3[C@@H](O)C[C@H](O[C@H]4CC[C@@]5(C)[C@H](CC[C@@H]6[C@@H]5CC[C@]5(C)[C@@H](C7=CC(=O)OC7)CC[C@]65O)C4)O[C@@H]3C)O[C@@H]2C)C[C@H](O)[C@@H]1O` [Digitoxin, digitoxin]: the inhibition of infectivity in series [1] was determined as 100%. Besides, in series [2] (0.1 mg/day by mouth, by day 28), the peak serum concentration was 10 ng/ml and 13 nM. The adverse events result in series [2] (0.05 or 0.1 mg/day for 28 days) is on record as “no adverse events were associated with the study drug”.

`C[C@]12CC[C@H](O)C[C@H]1CC[C@@H]1[C@@H]2C[C@@H](O)[C@]2(C)[C@@H](C3=CC(=O)OC3)CC[C@]12O` [Digoxigenin, digoxigenin] returned an inhibition of infectivity in series [1] of 100%.

In the case of `C[C@H]1O[C@@H](O[C@H]2[C@@H](O)C[C@H](O[C@H]3[C@@H](O)C[C@H](O[C@H]4CC[C@@]5(C)[C@H](CC[C@@H]6[C@@H]5C[C@@H](O)[C@]5(C)[C@@H](C7=CC(=O)OC7)CC[C@]65O)C4)O[C@@H]3C)O[C@@H]2C)C[C@H](O)[C@@H]1O` [Digoxin, digoxin], the inhibition of infectivity in series [1] is reported as 100%. The EC50 in the series on native SARS-CoV-2 is 43 nM. In addition, the adverse events entry in series [3] is reported as “no adverse events associated with the study drug”.

`C[C@@H]1O[C@@H](O[C@H]2C[C@@H](O)[C@]3(CO)[C@H]4[C@H](O)C[C@]5(C)[C@@H](C6=CC(=O)OC6)CC[C@]5(O)[C@@H]4CC[C@]3(O)C2)[C@H](O)[C@H](O)[C@H]1O` [Ouabain, ouabain]: in series [4], the EC50 amounted to 16 ± 1 nM. The compound further came in with an inhibition of infectivity in series [1] of 100%. Further, in series [1] (Severe acute respiratory syndrome coronavirus 2, read-out: EC50, inhibition of infectivity), the EC50 was 36 nM. Also, the EC50 in the series with native SARS-CoV-2 was 24 nM. In series [5] (setting [7]), the adverse events entry is “No adverse events were reported” and the time to plateau was 4 to 5 days. Moreover, in series [5] (setting [8]), the half-life – broadly, the time needed for the level to fall by half in the phase considered – is 19 to 24 h; the peak plasma concentration is 12 ng/ml and 20 nM. Also, the adverse effects entry in series [6] was “No adverse effects were reported”.

The compound `C[C@]12CC[C@H](O)C[C@H]1CC[C@@H]1[C@@H]2CC[C@]2(C)[C@@H](C3=CC(=O)OC3)CC[C@]12O` [Digitoxigenin, digitoxigenin] gave an inhibition of infectivity in series [1] of 100%.
